Data published in US8273773B2 (priority 2008, dated 2012).

Legend:
[1] = target: T1, HCV polymerase (NS5B570n-Con1) (Hepatitis C virus genotype 1b, UniProt Q9WMX2); assay: biochemical; design: species or system HCV Con1 strain;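 note: recombinant His-tagged enzyme from E. coli, radiolabeled nucleotide incorporation into acid-insoluble RNA read by scintillation after filtration, no-enzyme background subtracted, activity relative to positive control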
T1 construct: contains a 21 amino acid deletion at the C-terminus relative to the full-length HCV polymerase; 6-histidine (N); made in house; host or cells: E. coli strain BL21(DE) pLysS (pET17b)

[2] = IC50 HCV NS5B RNA Polymerase Assay, values without asterisk, 20 nM NS5B570n-Con1 enzyme, 20 nM cIRES RNA template
[3] = IC50 HCV NS5B RNA Polymerase Assay (values with asterisk), values with asterisk: cIRES RNA template, 3 nM NS5B570n-Con1

COc1c(CCc2ccc(NS(C)(=O)=O)nc2)cc(-c2ccc[nH]c2=O)cc1C(C)(C)C [I-123]
IC50 [1, 2]: 3 nM | melting point: 140 to 142 °C

COc1c(C(=O)c2ccc(F)cc2)cc(-c2ccc[nH]c2=O)cc1C(C)(C)C [I-50]
IC50 [1, 2]: 52 nM | melting point: 203 to 205 °C

CC(C)(C)c1cc(-c2ccc[nH]c2=O)cc(S(=O)(=O)c2ccccc2)c1 [I-107, 3-(3-Benzenesulfonyl-5-tert-butyl-phenyl)-1H-pyridin-2-one]
IC50 [1, 2]: 2490 nM | melting point: 252 to 253 °C

COc1c(C(=O)c2ccc(O)cc2)cc(-c2ccc[nH]c2=O)cc1C(C)(C)C [I-55]
IC50 [1, 2]: 59 nM | melting point: 185 to 187 °C

COc1c(/C=C/c2ccc(NS(C)(=O)=O)cc2)cc(-c2cc(F)cn(COC(=O)[C@@H](N)C(C)C)c2=O)cc1C(C)(C)C
melting point: 188 to 190 °C

COc1c(CCc2ccc(NS(C)(=O)=O)c(F)c2)cc(-c2ccc[nH]c2=O)cc1C(C)(C)C [I-103]
IC50 [1, 2]: 8 nM | melting point: 111 to 113 °C

COc1ccc(-c2ccc[nH]c2=O)cc1C(C)(C)OC [I-62]
IC50 [1, 2]: 4130 nM | melting point: 154 to 155 °C

COc1ccc(-c2ccc[nH]c2=O)c(F)c1C(C)(C)C [I-56, 3-(3-tert-Butyl-2-fluoro-4-methoxy-phenyl)-1H-pyridin-2-one]
IC50 [1, 2]: 136 nM | melting point: 164.5 to 166 °C

COc1c(CCC(=O)O)cc(-c2ccc[nH]c2=O)cc1C(C)(C)C [I-22]
IC50 [1, 2]: 330 nM | melting point: 180.2 to 181.8 °C

COc1c(CCc2ccc(NS(C)(=O)=O)cc2F)cc(-c2ccc[nH]c2=O)cc1C(C)(C)C [I-102, N-(4-{2-[3-tert-Butyl-2-methoxy-5-(2-oxo-1,2-dihydro-pyridin-3-yl)-phenyl]-ethyl}-3-fluoro-phenyl)-methanesulfonamide]
IC50 [1, 2]: 8 nM | melting point: 120 to 122 °C

CCC(C)(C)c1cc(Br)c(O)c(-c2ccc[nH]c2=O)c1 [I-9]
IC50 [1, 2]: 3100 nM | melting point: 257.2 to 257.7 °C

CC(C)(C)c1cc(CCc2ccc(NS(C)(=O)=O)cn2)c(C#N)c(-c2ccc[nH]c2=O)c1 [I-114, N-(6-{2-[5-tert-Butyl-2-cyano-3-(2-oxo-1,2-dihydro-pyridin-3-yl)-phenyl]-ethyl}-pyridin-3-yl)-methanesulfonamide]
IC50 [1, 2]: 15 nM | melting point: 143 to 145 °C

COc1c(C(=O)c2cccc(F)c2)cc(-c2ccc[nH]c2=O)cc1C(C)(C)C [I-49]
IC50 [1, 2]: 71 nM | melting point: 209 to 210 °C

CC(=O)Nc1ccc(CCc2cc(-c3ccc[nH]c3=O)cc(C(C)(C)C)c2)cc1 [I-83]
IC50 [1, 2]: 125 nM | melting point: 218 to 220 °C

COc1c(C(=O)c2cc(F)cc(F)c2)cc(-c2ccc[nH]c2=O)cc1C(C)(C)C [I-52]
IC50 [1, 2]: 143 nM | melting point: 197.1 to 198.6 °C

CCc1cc(C(C)(C)C)cc(-c2ccc[nH]c2=O)c1O [I-14]
IC50 [1, 2]: 332 nM | melting point: 224.2 to 226.2 °C

COc1c(CC(C)(C#N)c2ccc(NS(C)(=O)=O)cc2)cc(-c2ccc[nH]c2=O)cc1C(C)(C)C (centres unmarked) [I-196, N-(4-{2-[3-tert-Butyl-2-methoxy-5-(2-oxo-1,2-dihydro-pyridin-3-yl)-phenyl]-1-cyano-1-methyl-ethyl}-phenyl)-methanesulfonamide]
IC50 [1, 2]: 30 nM | melting point: 158 to 160 °C

Cc1cc(-c2cc(C)c[nH]c2=O)cc(C(C)(C)C)c1 [I-7]
IC50 [1, 2]: 3260 nM | melting point: 212 to 213 °C

COc1c(C)cc(-c2ccc[nH]c2=O)cc1C(C)(C)C [I-29]
IC50 [1, 2]: 521 nM | melting point: 176 to 178 °C

COc1c(CCc2cnc(NS(C)(=O)=O)cn2)cc(-c2ccc[nH]c2=O)cc1C(C)(C)C [I-133]
IC50 [1, 2]: 16 nM | melting point: 282 to 283 °C

COc1c(CC(CN2CCC(F)(F)C2)c2ccc(NS(C)(=O)=O)cc2)cc(-c2ccc[nH]c2=O)cc1C(C)(C)C (centres unmarked) [I-195]
IC50 [1, 2]: 18 nM | melting point: 133 to 135 °C

COc1c(CCc2ccc(F)cc2)cc(-c2ccc[nH]c2=O)cc1C(C)(C)C [I-21]
IC50 [1, 2]: 90 nM | melting point: 157 to 158 °C

CC(C)(CO)c1cc(CCc2ccc(NS(C)(=O)=O)cc2)c(O)c(-c2ccc[nH]c2=O)c1 [I-199, N-(4-{2-[2-Hydroxy-5-(2-hydroxy-1,1-dimethyl-ethyl)-3-(2-oxo-1,2-dihydro-pyridin-3-yl)-phenyl]-ethyl}-phenyl)-methanesulfonamide]
IC50 [1, 2]: 13 nM | melting point: 118 to 120 °C

CS(=O)(=O)Nc1ccc(/C=C/c2cc(-c3ccc[nH]c3=O)cc(C3(CO)CC3)c2)cc1
melting point: 148 to 150 °C

COc1c(/C=C/c2ccc(NS(C)(=O)=O)cc2)cc(-c2cc(F)cn(COP(=O)(O)O)c2=O)cc1C(C)(C)C
melting point: 175 to 178 °C

COc1c(/C=C/c2ccc(NS(C)(=O)=O)cn2)cc(-c2ccc[nH]c2=O)cc1C(C)(C)C
melting point: 293 to 295 °C

COCCNc1ccc(C(=O)Nc2cc(-c3ccc[nH]c3=O)cc(C(C)(C)C)c2OC)cn1 [I-254, N-[3-tert-Butyl-2-methoxy-5-(2-oxo-1,2-dihydro-pyridin-3-yl)-phenyl]-6-(2-methoxy-ethylamino)-nicotinamide]
IC50 [1, 2]: 141 nM

COc1c(/C=C/c2ccc(NS(C)(=O)=O)cn2)cc(-c2cc(Cl)c[nH]c2=O)cc1C(C)(C)C [I-261]
IC50 [1, 3]: 3 nM

COc1c(C(=O)NC2CCCN(C)C2)cc(-c2ccc[nH]c2=O)cc1C(C)(C)C (centres unmarked) [I-77]
IC50 [1, 2]: 1830 nM

COc1c(/C=C/c2ccc(NS(C)(=O)=O)cc2CNC(C)=O)cc(-c2ccc[nH]c2=O)cc1C(C)(C)C [I-160, N-(2-{(E)-2-[3-tert-Butyl-2-methoxy-5-(2-oxo-1,2-dihydro-pyridin-3-yl)-phenyl]-vinyl}-5-methanesulfonylamino-benzyl)-acetamide]
IC50 [1, 2]: 4 nM

COc1c(C(=O)NCc2ccncc2)cc(-c2ccc[nH]c2=O)cc1C(C)(C)C [I-38]
IC50 [1, 2]: 932 nM

COc1c(NC(=O)c2ccc(N)cc2F)cc(-c2ccc[nH]c2=O)cc1C(C)(C)C [I-280]
IC50 [1, 2]: 10 nM

COC(=O)c1cc(NS(C)(=O)=O)ccc1/C=C/c1cc(-c2cc(F)c[nH]c2=O)cc(C(C)(C)C)c1OC [I-186]
IC50 [1, 3]: 4 nM

COc1c(C(=O)NCc2ccc(N(C)C)cc2)cc(-c2ccc[nH]c2=O)cc1C(C)(C)C [I-40]
IC50 [1, 2]: 1600 nM

COc1c(C(=O)Nc2cccc(NS(C)(=O)=O)c2)cc(-c2ccc[nH]c2=O)cc1C(C)(C)C [I-259, 3-tert-Butyl-N-(3-methanesulfonylamino-phenyl)-2-methoxy-5-(2-oxo-1,2-dihydro-pyridin-3-yl)-benzamide]
IC50 [1, 2]: 122 nM

COc1c(C(=O)NC2CCN(C)CC2)cc(-c2ccc[nH]c2=O)cc1C(C)(C)C [I-91]
IC50 [1, 2]: 1480 nM

COc1c(CCc2ccc(NS(C)(=O)=O)cc2C(=O)O)cc(-c2cc(F)c[nH]c2=O)cc1C(C)(C)C [I-190, 2-{2-[3-tert-Butyl-5-(5-fluoro-2-oxo-1,2-dihydro-pyridin-3-yl)-2-methoxy-phenyl]-ethyl}-5-methanesulfonylamino-benzoic acid]
IC50 [1, 3]: 1 nM

CC(C)(C)c1cc(CCc2ccc(NS(C)(=O)=O)cn2)c(O)c(-c2ccc[nH]c2=O)c1 [I-214, N-(6-{2-[5-tert-butyl-2-hydroxy-3-(2-oxo-1,2-dihydro-pyridin-3-yl)-phenyl]-ethyl}-pyridin-3-yl)-methanesulfonamide]
IC50 [1, 3]: 2 nM | IC50 [1, 2]: 5 nM

COc1c(CC(C)(CO)c2ccc(NS(C)(=O)=O)cc2)cc(-c2ccc[nH]c2=O)cc1C(C)(C)C (centres unmarked) [I-198, N-(4-{2-[3-tert-Butyl-2-methoxy-5-(2-oxo-1,2-dihydro-pyridin-3-yl)-phenyl]-1-hydroxymethyl-1-methyl-ethyl}-phenyl)-methanesulfonamide]
IC50 [1, 2]: 19 nM

COc1c(NC(=O)c2ccc(N)cn2)cc(-c2ccc[nH]c2=O)cc1C(C)(C)C [I-283]
IC50 [1, 2]: 9 nM

COc1c(/C=C/c2ccc(NC(C)=O)cn2)cc(-c2cc(F)c[nH]c2=O)cc1C(C)(C)C [I-169, N-(6-{(E)-2-[3-tert-Butyl-5-(5-fluoro-2-oxo-1,2-dihydro-pyridin-3-yl)-2-methoxy-phenyl]-vinyl}-pyridin-3-yl)-acetamide]
IC50 [1, 2]: 29 nM

COc1c(/C=C/c2ccccc2C(=O)O)cc(-c2ccc[nH]c2=O)cc1C(C)(C)C [I-246, 2-{(E)-2-[3-tert-Butyl-2-methoxy-5-(2-oxo-1,2-dihydro-pyridin-3-yl)-phenyl]-vinyl}-benzoic acid]
IC50 [1, 3]: 1 nM

COc1c(/C=C/c2ccccn2)cc(-c2ccc[nH]c2=O)cc1C(C)(C)C [I-241, 3-[3-tert-Butyl-4-methoxy-5-((E)-2-pyridin-2-yl-vinyl)-phenyl]-1H-pyridin-2-one]
IC50 [1, 3]: 3 nM

COc1c(C(=O)N2CCCC(CO)C2)cc(-c2ccc[nH]c2=O)cc1C(C)(C)C (centres unmarked) [I-24]
IC50 [1, 2]: 1530 nM

COc1c(N(C)C(=O)c2ccc(NS(C)(=O)=O)cc2)cc(-c2ccc[nH]c2=O)cc1C(C)(C)C [I-104, N-[3-tert-Butyl-2-methoxy-5-(2-oxo-1,2-dihydro-pyridin-3-yl)-phenyl]-4-methanesulfonylamino-N-methyl-benzamide]
IC50 [1, 2]: 107 nM

COc1c(C(=O)NC2CCC(NS(C)(=O)=O)CC2)cc(-c2ccc[nH]c2=O)cc1C(C)(C)C (centres unmarked) [I-260, 3-tert-Butyl-N-(4-methanesulfonylamino-cyclohexyl)-2-methoxy-5-(2-oxo-1,2-dihydro-pyridin-3-yl)-benzamide]
IC50 [1, 2]: 35 nM

COc1c(/C=C/c2ccc(NS(=O)(=O)CCCN3CCCC3)cc2)cc(-c2cc(F)c[nH]c2=O)cc1C(C)(C)C [I-230, 3-Pyrrolidin-1-yl-propane-1-sulfonic acid (4-{(E)-2-[3-tert-butyl-5-(5-fluoro-2-oxo-1,2-dihydro-pyridin-3-yl)-2-methoxy-phenyl]-vinyl}-phenyl)-amide]
IC50 [1, 3]: 6 nM

COCCN(C(=O)c1cc(-c2ccc[nH]c2=O)cc(C(C)(C)C)c1OC)C1CC1 [I-31]
IC50 [1, 2]: 2290 nM
